From EP3175850B1, “PHARMACEUTICAL COMPOSITION FOR ALLEVIATING OR TREATING GOUT AND USES THEREOF” (Industrial Technology Research Institute, priority 2014, dated 2016)

Experiments:
Type in all cases: in vivo
[1] = system: neutrophil cell (CD45^+/Ly6G^+ cells); assay: Mouse air pouch model (MSU crystal-induced acute gouty arthritis): neutrophil cell density in exudate by flow cytometry; conditions: Example 4, Table 3; for INHIBITION RATE (neutrophil cell density): CD45^+/Ly6G^+ cells, vs blank control, topical 100 mg paste/mouse (5 mg total active); for AVERAGE VALUES (normalized cell density, neutrophil CD45^+/Ly6G^+ cells): topical 100 mg paste/mouse (5 mg total active) 15 hours prior to MSU, exudate 5 hours after MSU, blank control 360
Experimental: (§1) Mouse Air pouch model: this mouse model may be referenced to the methods and the experimental details as in the published article "Role of S100A8 and S100A9 in neutrophil recruitment in response to monosodium urate monohydrate crystals in the air-pouch model of acute gouty arthritis", Arthritis Rheum 2003 Aug, 48(8):2310-20.
(§2) Before the experiment, the mice are shaved to remove back hair. At day 0 sterile filtered air (2 ml/per mouse) is injected through 0.22 µm microfilter to the back of each mouse subcutaneously, so that a pseudosynovial cavity is formed in each mouse. At day 3, an air booster (3 ml/mouse) is again given to each mouse, so that the air pouch is maintained round. Later, the mice are weighed and grouped so that the average weight of the mice in each group is about the same. At day 6 monosodium urate (MSU) crystal suspension (5 mg in 2 ml/per mouse) is injected into the air pouch. Topical application of the paste (100 mg paste/per mouse) is administrated 15 hours prior to MSU stimulation. At a specific time (5 hours) after the injection of MSU, the mice were euthanized with an excess of carbon dioxide, 2 ml PBS per mouse is injected into the air pouch, and the air pouch is carefully cut to collect the exudate. The collected exudate is subjected to the centrifugation at 1,000 rpm, 4°C for 5 minutes, and the supernatant is then placed in a 96-well plate and stored at -20°C. An ELISA kit (purchased from R&D Systems) is used to analyze the contents of IL-1β and IL-6 in the exudate. The precipitate is resuspended and reacted with 1 ml red blood cell lysis buffer (RBC lysis buffer) for one minute to remove the red blood cells, followed by adding 1 ml PBS to terminate the reaction, centrifuged at 1,000 rpm, 25°C for 5 minutes, and the supernatant is discarded. The precipitate is then resuspended in 1 ml PBS as the cell suspension and the cell suspension is filtered by filter membrane (BD Falcon 100 µm Nylon filter strainer) and the filtered cell suspension is dispensed into several tubes (0.25 ml/tube) for subsequent cell counting or for labelling with various differentiation antigen markers (such as cluster of differentiation (CD) markers). The flow cytometry is used for cell counting of the various cells.
(§3) In order to investigate the anti-gout efficacy of AG02-RA1 and AG04-RA1, either used alone or in combination, the experiments are performed to test AG02-RA1 alone, AG04-RA1 alone and the combination(s) of AG02-RA1 :AG04-RA1 in the ratio of 50:50 (Composition Nos. 1, 2 and 3 as shown in Table 1). The total weight of the content of AG02-RA1 and/or AG04-RA1 is 5 mg, accounting for 5 % of the total weight of the test sample paste composition. […]

[2] = system: leukocyte cell (CD45^+ cells); assay: Mouse air pouch model (MSU crystal-induced acute gouty arthritis): leukocyte cell density in exudate by flow cytometry; conditions: for AVERAGE VALUES (normalized leukocyte cell density): Example 4, Table 2, topical 100 mg paste/mouse (5 mg total active) 15 hours prior to MSU, exudate 5 hours after MSU, blank control 803; for INHIBITION RATE (leukocyte cell density): Example 4, Table 2, vs blank control, topical 100 mg paste/mouse (5 mg total active) 15 hours prior to MSU, 5 hours after MSU
Experimental: as §1, §2, §3

interleukin-6 (mIL-6) = assay: Mouse air pouch model (MSU crystal-induced): IL-6 content of exudate by ELISA; conditions: Example 4, Figure 4; topical 100 mg paste/mouse (5 mg total active) 15 hours prior to MSU; exudate 5 hours after MSU
Experimental: as §1
(§4) Before the experiment, the mice are shaved to remove back hair. At day 0 sterile filtered air (2 ml/per mouse) is injected through 0.22 µm microfilter to the back of each mouse subcutaneously, so that a pseudosynovial cavity is formed in each mouse. At day 3, an air booster (3 ml/mouse) is again given to each mouse, so that the air pouch is maintained round. Later, the mice are weighed and grouped so that the average weight of the mice in each group is about the same. At day 6 monosodium urate (MSU) crystal suspension (5 mg in 2 ml/per mouse) is injected into the air pouch. Topical application of the paste (100 mg paste/per mouse) is administrated 15 hours prior to MSU stimulation. At a specific time (5 hours) after the injection of MSU, the mice were euthanized with an excess of carbon dioxide, 2 ml PBS per mouse is injected into the air pouch, and the air pouch is carefully cut to collect the exudate. The collected exudate is subjected to the centrifugation at 1,000 rpm, 4°C for 5 minutes, and the supernatant is then placed in a 96-well plate and stored at -20°C. […]

interleukin-1β (mIL-1β) = assay: Mouse air pouch model (MSU crystal-induced): IL-1β content of exudate by ELISA; conditions: Example 4, Figure 3; topical 100 mg paste/mouse (5 mg total active) 15 hours prior to MSU; exudate 5 hours after MSU
Experimental: as §1, §4

**Q.** With “3,7,11,15(17)-cembratetraene-16,2:19,6-diolide-3484-37-5(3E,12E)-3,12-dimethyl-8-methylene-6,18-dioxa-tricyclo[14.2.1.0.5,9]nonadeca-3,12,16(19)-triene-7,17-dione [AG02-RA1]” as the molecule, how does the “INHIBITION RATE (neutrophil cell density)” value [1] read?
**A.** 63%

**Q.** What about the “AVERAGE VALUES (normalized cell density, neutrophil CD45^+/Ly6G^+ cells)” value [1] of the same molecule?
**A.** 133 cells*10^3/ml

**Q.** And the “AVERAGE VALUES (normalized leukocyte cell density)” value [2]?
**A.** 1609 cells* 10^3/ml

**Q.** And the “INHIBITION RATE (leukocyte cell density)” value [2]?
**A.** -100%

**Q.** How did the “inhibition rate of interleukin-6 secretion” value (interleukin-6 (mIL-6)) turn out when `CC(=O)OCC=Cc1ccc(OC(C)=O)cc1` [AG04-RA1, 4-(3-acetoxy-propenyl)-phenyl acetate] was run?
**A.** > 50%

**Q.** And the “INHIBITION RATE (neutrophil cell density)” value [1]?
**A.** 43%

**Q.** And the “AVERAGE VALUES (normalized cell density, neutrophil CD45^+/Ly6G^+ cells)” value [1]?
**A.** 205 cells*10^3/ml

**Q.** And the “inhibition rate of interleukin-1β secretion” value (interleukin-1β (mIL-1β))?
**A.** > 50%

**Q.** And the “AVERAGE VALUES (normalized leukocyte cell density)” value [2]?
**A.** 670 cells* 10^3/ml

**Q.** What about the “INHIBITION RATE (leukocyte cell density)” value [2] of the same molecule?
**A.** 17%
